# Target: acetylcholinesterase (Homo sapiens, UniProt P22303)
# Experiment: Inhibition of acetylcholinesterase activity (method of Ellman et al.)
# Format: biochemical
# Chain of acetylcholinesterase (P22303 32-614): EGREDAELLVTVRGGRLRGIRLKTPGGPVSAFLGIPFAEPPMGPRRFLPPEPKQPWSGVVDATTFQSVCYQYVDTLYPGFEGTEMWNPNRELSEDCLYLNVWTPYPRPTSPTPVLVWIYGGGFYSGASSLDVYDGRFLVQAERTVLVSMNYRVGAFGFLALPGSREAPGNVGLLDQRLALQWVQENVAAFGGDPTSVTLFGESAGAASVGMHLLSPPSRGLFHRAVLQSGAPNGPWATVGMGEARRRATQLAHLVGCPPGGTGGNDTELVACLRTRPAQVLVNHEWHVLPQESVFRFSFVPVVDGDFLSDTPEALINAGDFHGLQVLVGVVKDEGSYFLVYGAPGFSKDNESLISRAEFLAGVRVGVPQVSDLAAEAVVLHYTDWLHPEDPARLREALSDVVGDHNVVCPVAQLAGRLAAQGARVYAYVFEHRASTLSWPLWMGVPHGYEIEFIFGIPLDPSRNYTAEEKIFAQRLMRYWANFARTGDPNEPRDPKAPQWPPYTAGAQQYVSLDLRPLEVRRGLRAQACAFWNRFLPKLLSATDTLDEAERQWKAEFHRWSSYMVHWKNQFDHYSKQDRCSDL
structure (smiles),measurement,value
"S=C(NCCC1CCN(Cc2ccccc2)CC1)Nc1ccccc1 [Compound 1, 1-Phenyl-3-[2-(1-benzyl-4-piperidyl)ethyl]thiourea]",IC50,320 nM

# — US5364864A, “1,4-disubstituted piperidines, their preparation and their application in therapy” (priority 1991, dated 1994)
